In patent US20100267561A1, “HERBICIDAL PYRIDAZINONE DERIVATIVES” (priority 2007, published 2010):
Read-outs that look alike come from different tables or passages of the source.

Legend:
Assay in all cases: Test B pre-/postemergence plant response
Type in all cases: in vivo
[1] = test system: blackgrass (Alopecurus myosuroides); conditions: for pest or weed control at 31 g/ha: 31 g ai/ha; for pest or weed control at 62 g/ha: 62 g ai/ha
In short: (§1)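 Visual scoring from 0 (no effect) to 100 (complete control) against untreated controls was done 13 to 15 days after greenhouse treatment. Chemicals were formulated in a surfactant-containing non-phytotoxic solvent and applied to soil preemergence or to 1- to 4-leaf (2-18 cm) plants postemergence.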

[2] = test system: catchweed bedstraw (Galium aparine); conditions: Preemergence
In short: as §1

[3] = test system: cocklebur (Xanthium strumarium); conditions: for Cocklebur plant response rating: 8 g ai/ha; for pest or weed control at 16 g/ha / pest or weed control at 31 g/ha / pest or weed control at 62 g/ha: Xanthium strumarium, read-out: Plant response rating, Cocklebur; for pest or weed control at 16 g/ha: 16 g ai/ha; for pest or weed control at 31 g/ha: 31 g ai/ha; for pest or weed control at 62 g/ha: 62 g ai/ha
In short: as §1

[4] = test system: common (oilseed) sunflower (Helianthus annuus); conditions: Preemergence
In short: as §1

[5] = test system: common ragweed (Ambrosia elation); conditions: for Ragweed plant response rating: 8 g ai/ha; for pest or weed control at 16 g/ha / pest or weed control at 31 g/ha / pest or weed control at 62 g/ha: Ambrosia, read-out: Plant response rating, Ragweed; for pest or weed control at 16 g/ha: 16 g ai/ha; for pest or weed control at 31 g/ha: 31 g ai/ha; for pest or weed control at 62 g/ha: 62 g ai/ha
In short: as §1

[6] = test system: giant foxtail (Setaria faberii); conditions: for Foxtail, Giant plant response rating: 8 g ai/ha; for pest or weed control at 16 g/ha / pest or weed control at 31 g/ha / pest or weed control at 62 g/ha: Setaria faberi, read-out: Plant response rating, Foxtail, Giant; for pest or weed control at 16 g/ha: 16 g ai/ha; for pest or weed control at 31 g/ha: 31 g ai/ha; for pest or weed control at 62 g/ha: 62 g ai/ha
In short: as §1

[7] = test system: goosegrass (Eleusine indica); conditions: for Goosegrass plant response rating: 8 g ai/ha; for pest or weed control at 16 g/ha / pest or weed control at 31 g/ha / pest or weed control at 62 g/ha: Eleusine indica, read-out: Plant response rating, Goosegrass; for pest or weed control at 16 g/ha: 16 g ai/ha; for pest or weed control at 31 g/ha: 31 g ai/ha; for pest or weed control at 62 g/ha: 62 g ai/ha
In short: as §1

[8] = test system: johnsongrass (Sorghum halepense); conditions: for Johnsongrass plant response rating: 8 g ai/ha
In short: as §1

[9] = Alopecurus myosuroides, post-emergence, Postemergence, scale 0 to 100, 0 no effect, 100 complete control, read-out: Plant response rating, Blackgrass
[10] = post-emergence, Postemergence, scale 0 to 100
[11] = post-emergence, Postemergence, scale 0 to 100, 0 no effect, 100 complete control
[12] = pre-emergence, Preemergence, scale 0 to 100 (0 no effect, 100 complete control)
[13] = pre-emergence, Preemergence, 0 to 100 scale, 0 no effect, 100 complete control
[14] = pre-emergence, Preemergence, scale 0 to 100

`CCc1c(C)c(-c2ccc(Cl)cc2)nn1-c1c(O)cnn(C)c1=O` [Compound 26, 4-[3-(4-chlorophenyl)-5-ethyl-4-methyl-1H-pyrazol-1-yl]-5-hydroxy-2-methyl-3(2H)-pyridazinone] was tested. Which “Blackgrass plant response rating” value ([1]; 8 g ai/ha, postemergence, 0-100 scale) did it give?
The value was 0.

What about the pest or weed control at 16 g/ha ([1]; Alopecurus myosuroides, post-emergence, Postemergence, 16 g ai/ha, scale 0 to 100, read-out: Plant response rating, Blackgrass) of the same compound?
The pest or weed control at 16 g/ha was 50%.

What about the pest or weed control at 31 g/ha [1, 9] of the same compound?
The pest or weed control at 31 g/ha was 80%.

What about the pest or weed control at 62 g/ha [1, 9] of the same compound?
Its pest or weed control at 62 g/ha is 80%.

And the pest or weed control at 31 g/ha ([1]; Alopecurus myosuroides, pre-emergence, Preemergence, 0 to 100 scale, 0 no effect, 100 complete control, read-out: Plant response rating, Blackgrass)?
The pest or weed control at 31 g/ha was 85%.

And the pest or weed control at 62 g/ha ([1]; Alopecurus myosuroides, pre-emergence, Preemergence, scale 0 to 100, read-out: Plant response rating, Blackgrass)?
The pest or weed control at 62 g/ha was 100%.

And the pest or weed control at 16 g/ha ([2]; Galium aparine, pre-emergence, 16 g ai/ha, scale 0 to 100 (0 no effect, 100 complete control), read-out: Plant response rating, Galium)?
Its pest or weed control at 16 g/ha is 0%.

And the pest or weed control at 31 g/ha ([2]; Galium aparine, pre-emergence, 31 g ai/ha, 0 to 100 scale, 0 no effect, 100 complete control, read-out: Plant response rating, Galium)?
Its pest or weed control at 31 g/ha is 0%.

What about the pest or weed control at 62 g/ha ([2]; Galium aparine, pre-emergence, 62 g ai/ha, scale 0 to 100, read-out: Plant response rating, Galium) of the same compound?
Its pest or weed control at 62 g/ha is 0%.

And the “Galium plant response rating” value ([2]; 8 g ai/ha, scale 0 to 100)?
Its value is 0.

What about the “Cocklebur plant response rating” value ([3]; postemergence, 0-100 scale) of the same compound?
Its value is 0.

What about the “Cocklebur plant response rating” value ([3]; Preemergence, scale 0 to 100) of the same compound?
Its value is 0.

And the pest or weed control at 16 g/ha [3, 10]?
Its pest or weed control at 16 g/ha is 0%.

And the pest or weed control at 31 g/ha [3, 11]?
The pest or weed control at 31 g/ha was 0%.

And the pest or weed control at 62 g/ha [3, 11]?
Its pest or weed control at 62 g/ha is 0%.

What about the pest or weed control at 16 g/ha [3, 12] of the same compound?
Its pest or weed control at 16 g/ha is 0%.

What about the pest or weed control at 31 g/ha [3, 13] of the same compound?
Its pest or weed control at 31 g/ha is 0%.

What about the pest or weed control at 62 g/ha [3, 14] of the same compound?
Its pest or weed control at 62 g/ha is 10%.

What about the pest or weed control at 16 g/ha ([4]; Helianthus annuus, pre-emergence, 16 g ai/ha, scale 0 to 100 (0 no effect, 100 complete control), read-out: Plant response rating, Sunflower) of the same compound?
Its pest or weed control at 16 g/ha is 0%.

What about the pest or weed control at 31 g/ha ([4]; Helianthus annuus, pre-emergence, 31 g ai/ha, 0 to 100 scale, 0 no effect, 100 complete control, read-out: Plant response rating, Sunflower) of the same compound?
The pest or weed control at 31 g/ha was 0%.

And the pest or weed control at 62 g/ha ([4]; Helianthus annuus, pre-emergence, 62 g ai/ha, scale 0 to 100, read-out: Plant response rating, Sunflower)?
The pest or weed control at 62 g/ha was 0%.

What about the “Sunflower plant response rating” value ([4]; 8 g ai/ha, scale 0 to 100) of the same compound?
Its value is 0.

What about the “Ragweed plant response rating” value ([5]; postemergence, 0-100 scale) of the same compound?
Its value is 0.

And the pest or weed control at 16 g/ha [5, 10]?
Its pest or weed control at 16 g/ha is 0%.

What about the pest or weed control at 31 g/ha [5, 11] of the same compound?
The pest or weed control at 31 g/ha was 0%.

What about the pest or weed control at 62 g/ha [5, 11] of the same compound?
The pest or weed control at 62 g/ha was 0%.

And the pest or weed control at 16 g/ha [5, 12]?
Its pest or weed control at 16 g/ha is 0%.

What about the pest or weed control at 31 g/ha [5, 13] of the same compound?
The pest or weed control at 31 g/ha was 0%.

What about the pest or weed control at 62 g/ha [5, 14] of the same compound?
The pest or weed control at 62 g/ha was 0%.

And the “Ragweed plant response rating” value ([5]; Preemergence, scale 0 to 100)?
Its value is 0.

What about the “Foxtail, Giant plant response rating” value ([6]; postemergence, 0-100 scale) of the same compound?
The value was 80.

And the “Foxtail, Giant plant response rating” value ([6]; Preemergence, scale 0 to 100)?
Its value is 65.

And the pest or weed control at 16 g/ha [6, 10]?
Its pest or weed control at 16 g/ha is 95%.

And the pest or weed control at 31 g/ha [6, 11]?
Its pest or weed control at 31 g/ha is 95%.

And the pest or weed control at 62 g/ha [6, 11]?
Its pest or weed control at 62 g/ha is 100%.

What about the pest or weed control at 16 g/ha [6, 12] of the same compound?
The pest or weed control at 16 g/ha was 95%.

And the pest or weed control at 31 g/ha [6, 13]?
The pest or weed control at 31 g/ha was 100%.

What about the pest or weed control at 62 g/ha [6, 14] of the same compound?
Its pest or weed control at 62 g/ha is 100%.

What about the “Goosegrass plant response rating” value ([7]; postemergence, 0-100 scale) of the same compound?
Its value is 0.

What about the pest or weed control at 16 g/ha [7, 10] of the same compound?
Its pest or weed control at 16 g/ha is 0%.

What about the pest or weed control at 31 g/ha [7, 11] of the same compound?
Its pest or weed control at 31 g/ha is 0%.

And the pest or weed control at 62 g/ha [7, 11]?
The pest or weed control at 62 g/ha was 20%.

And the pest or weed control at 16 g/ha [7, 12]?
Its pest or weed control at 16 g/ha is 50%.

What about the pest or weed control at 31 g/ha [7, 13] of the same compound?
Its pest or weed control at 31 g/ha is 70%.

What about the pest or weed control at 62 g/ha [7, 14] of the same compound?
Its pest or weed control at 62 g/ha is 95%.

And the “Goosegrass plant response rating” value ([7]; Preemergence, scale 0 to 100)?
Its value is 50.

And the “Johnsongrass plant response rating” value ([8]; postemergence, 0-100 scale)?
Its value is 0.

What about the “Johnsongrass plant response rating” value ([8]; Preemergence, scale 0 to 100) of the same compound?
The value was 0.

What about the pest or weed control at 16 g/ha ([8]; Sorghum halepense, post-emergence, Postemergence, 16 g ai/ha, scale 0 to 100, read-out: Plant response rating, Johnsongrass) of the same compound?
The pest or weed control at 16 g/ha was 0%.
